Data reported in ChEMBL document CHEMBL1126927.

Biological target: Estrogen receptor (Ovis aries) (UniProt P49885+Q9TU15)
Description: Association constant for estrogen receptor

| K ass | SMILES |
| --- | --- |
| 1e+09 | [N-]=[N+]=Nc1ccc(C(=O)c2c(-c3ccc(O)cc3)sc3cc(O)ccc23)cc1 |
| 1.3e+09 | O=C(c1ccc(OCCN2CCCC2)cc1)c1c(-c2ccc(O)cc2)sc2cc(O)ccc12 |
| 1.7e+08 | [N-]=[N+]=Nc1c(F)c(F)c(C(=O)c2c(-c3ccc(O)cc3)sc3cc(O)ccc23)c(F)c1F |
